Laboratory results: patent US20140349332A1, “METHOD AND DEVICE FOR EXAMINING MYOCARDIAL TOXICITY AND EVALUATING CARDIOMYOCYTE” (priority 2011, published 2014)

System: cardiomyocyte network
Assay: Simultaneous measurement of extracellular potential (FP) and contractile force (optical imaging of probe microparticles) in cardiomyocyte network
Assay type: cell-based
Text: FIG. 43 is a schematic diagram showing an example of a system configuration of the present invention to simultaneously measure the mechanical properties and electrical properties of cardiomyocytes. The present system includes (1) a cellular network chip that can be used for culturing a cell population, includes a plurality of micro-electrodes disposed on a substrate and can be used for acquiring cellular potential data of a small area of the population; (2) a chip mounter for mounting the chip and joining electrically with cell-stimulating and/or cellular potential measuring system; (3) an environmental control vessel which can be used to control the environment such as temperature, humidity, oxygen concentration and carbon dioxide concentration of the cell population being cultured; (4) a micro multi-electrode potential measurement system that can give stimulation to a specific cell of a cardiomyocyte population, and allows simultaneous continuous measurements of cellular potentials of various small areas in the cell population; (5) one or more position-coordinate probe microparticles configured to measure changes in shape of myocardial cells and allow easy identification of cardiomyocytes using a plastic, polymer, glass or metal microparticles such as polystyrene microparticles, glass microparticles or gold microparticles of sizes from at minimum about 0.1, 0.2 μm, 0.3 μm, 0.4 μm, 0.5 μm, 0.6 μm, 0.7 μm, or preferably about 0.8 μm, more preferably about 0.9 μm, or most preferably about 1 μm, to at most about 500 μm, 400 μm, 300 μm, preferably about 200 μm, more preferably about 100 μm or most preferably about 50 μm, wherein the particles are disposed in the cell population by mixing them on the surface of the cardiomyocyte population in the cell network chip or in the cell population and culturing them; (6) an optical image capturing system for optically measuring the microparticles, wherein the system includes a light source, an optical microscope and an image-capturing camera to capture the images of the microparticles; and (7) a computer system for image analysis, cellular potential analysis, stimulus control and/or integrated data acquisition, wherein the system is capable of measurements of cellular potential and analysis of waveforms of the potential, measurements of cell displacements by image analysis and feedback stimulation based on the analysis results. In the measurements using the device system, as for the stimulus to cause depolarization of the myocardial cells, the stimulus can be provided by selecting mainly from three means, i.e., (A) measurements using conduction of autonomous pulsation of the cardiomyocyte population, (B) measurements of conduction by providing a forced electrical stimulation from outside to a specific cell in the cardiomyocyte population and (C) measurements of conduction by providing a feed-back stimulus at a specific timing to meet the relationship of the delay time and the value of the cellular potential based on the cell voltage measured data to the specific cells in the cardiomyocyte population.
FIG. 44 is an example of a data acquisition monitor screen showing an example of data obtained from an example of a system configuration of the present invention to simultaneously measure the mechanical properties and the electrical properties of cardiomyocytes. In a setting of this example, a large number of polystyrene microparticles are placed on the surface of the cardiomyocyte population, a probe-particle displacement-observation window for five of the polystyrene microparticles selected as probes is set, and the center of gravity of the window moves with the movement of the microparticles in the window, thereby displacement of the particular probe microparticles can be measured continuously as a change in vector time in the directions of the X-axis and Y-axis. […]

[1] = drug concentration of 100 nM, FIG. 52B

## COc1ccc(CCN(C)CCCC(C#N)(c2ccc(OC)c(OC)c2)C(C)C)cc1OC (stereo not drawn) [verapamil]
1000 nM, FIG. 52A
  electrophysiological excitation: does not occur
  mechanical contraction: mechanical contraction does not occur
Administration of 10 nM, FIG. 54B
  angle fluctuation against decrease in contractile force: barely increases
Administration of 100 nM, FIG. 54B
  fluctuation of contractile direction in the angular direction: rapid fluctuation
[1]
  contractile force: disappear rapidly
  electrical firing of excitatory conduction of cells: maintained
